Assay type: physicochemical
Conditions: 2 h
Description: 30.13 mg of 106 was added to 1 mL USP-purified water. The sample was rotated for 2 h and then centrifuged for 5 min. […] A 125 μL aliquot of the solution was then diluted to 25 mL. The sample was analyzed by UV/Vis spectroscopy at 436 nm, and the absorbance was compared to a standard curve compiled from four standards of known concentration. […] Slight error may have been introduced by the small size of the original aliquot. […] The sample was rotated for 2 h and then centrifuged for 5 min. […] A 125 μL aliquot of the solution was then diluted to 25 mL. The sample was analyzed by UV/Vis spectroscopy at 411 nm, and the absorbance was compared to a standard curve compiled from four standards of known concentration. […] Slight error may have been introduced by the small size of the original aliquot.

Substance: β,ε-Carotenyl 3,3′-disuccinate sodium salt [compound 106]
- Aqueous dispersibility (concentration of the original supernatant): 2.85 mg/mL

— US20070015735A1, “Water-dispersible carotenoids, including analogs and derivatives” (priority 2005, published 2007)
